This series can be described thus: 13C hyperpolarization by Para Hydrogen Induced Polarization (PHIP) with Goldman RF transfer sequence. The settings on record: non-deuterated, natural abundance 13C. The series is classed as physicochemical. An excerpt:
Our objective was to test a model system of polarization that can be incorporated into peptide sequence. Dehydroalanine is an unnatural amino acid with a methylene group instead of the normal methyl side chain for alanine. Several publications laid out the framework on synthesizing peptides containing this reactive amino acid side chain double bond. (Okeley N M, Zhu Y, van der Donk W A. Facile Chemoselective Synthesis of Dehydroalanine-Containing Peptides†. Organic Letters. 2000; 2(23):3603-6). The double bond of dehydroalanine is ideally positioned for PHIP to generate a polarized ^13C carboxyl nucleus with the resulting product an alanine amino acid residue. We utilized a purchased chemical equivalent resembling dehydroalanine in a peptide chain with the terminal carboxyl and amine protected by functional groups (FIG. 1). […] The 3JHH scalar coupling (J) constant was kept at 7.47 Hz, the 3JHH value was determined by proton spectroscopy. All measured samples were combined and lyophilized to dryness, then and dissolved in 2.5 mL of diH2O and scanned (^13C spectroscopy) for 17 hours with a repetition time of 50 seconds. […]

Molecules are shown by their SMILES.

`C=C(NC(C)=O)C(=O)OC` [MAA, methyl 2-acetamidoacrylate]: the “polarization reached with the best set of scalar coupling constants” value (13C carboxyl carbon of the alanine product after 3 second para-hydrogenation of 24 mM MAA in deuterium oxide, 1.4 mT PHIP instrument) was found to be 0.1±0.07%. Also, the “maximum polarization from the best sequence” value (approximated from the Boltzmann thermal equilibrium signal, 13C spectroscopy at 9.4T) is recorded as around 0.2%.

Values taken from patent US20180230182A1, “HYPERPOLARIZATION OF AMINO ACID RESIDUES FOR PRODUCING HYPERPOLARIZED PEPTIDES” (Cedars-Sinai Medical Center, priority 2017, published 2018).
